US8940779B2, “Microbicidal composition” (Rohm and Haas Company, priority 2007, dated 2015)
Values joined by “and” are separate entries in the source; they are usually repeats but may differ in a detail not shown here. Equal entries are not always repeated. Where two headings read alike, the source gives them in different places.

Columns and labels:
Type in all cases: cell-based
[1] = system: Aspergillus niger (A. niger, ATCC 16404); test: Microtiter plate MIC synergy test (Kull synergy index), mold; conditions: for Ca, first component alone (QA, MIC): A. niger, component acting alone; for MIC: Aspergillus niger
From the text: (§1) One measure of synergism is the industrially accepted method described by Kull, F. C.; Eisman, P. C.; Sylwestrowicz, H. D. and Mayer, R. L., in Applied Microbiology 9:538-541 (1961), using the ratio determined by the formula: Qa/QA+Qb/QB=Synergy Index (“SI”) wherein: • QA=concentration of compound A (first component) in ppm, acting alone, which produced an end point (MIC of Compound A). • Qa=concentration of compound A in ppm, in the mixture, which produced an end point. • QB=concentration of compound B (second component) in ppm, acting alone, which produced an end point (MIC of Compound B). • Qb=concentration of compound B in ppm, in the mixture, which produced an end point.
(§2) When the sum of Qa/QA and Qb/QB is greater than one, antagonism is indicated. […] The lower the SI, the greater the synergy shown by that particular mixture. The minimum inhibitory concentration (MIC) of a microbicide is the lowest concentration tested under a specific set of conditions that prevents the growth of added microorganisms.
(§3) Synergy tests were conducted using standard microtiter plate assays with media designed for optimal growth of the test microorganism. Minimal salt medium supplemented with 0.2% glucose and 0.1% yeast extract (M9GY medium) was used for testing bacteria; Potato Dextrose Broth (PDB medium) was used for testing yeast and mold. In this method, a wide range of combinations of microbicides was tested by conducting high resolution MIC assays in the presence of various concentrations of MBIT. High resolution MICs were determined by adding varying amounts of microbicide to one column of a microtitre plate and doing subsequent […] dilutions using an automated liquid handling system to obtain a series of endpoints ranging from 2 ppm to 10,000 ppm active ingredient.
(§4) The synergy of the combinations of the present invention was determined against a bacterium, Escherichia coli (E. coli—ATCC #8739), a yeast, Candida albicans (C. albicans—ATCC 10231), and a mold, Aspergillus niger (A. niger—ATCC 16404). The bacteria were used at a concentration of about 5×10^6 bacteria per mL and the yeast and mold at 5×10^5 fungi per mL. These microorganisms are representative of natural contaminants in many consumer and industrial applications. […] (yeast and mold) or 30° C. (bacteria).
(§5) In each test, Second Component (B) was MBIT and the First Component (A) was the other commercial microbicide.

[2] = system: Candida albicans (C. albicans, ATCC 10231); test: Microtiter plate MIC synergy test (Kull synergy index), yeast; conditions: for Ca, first component alone (QA, MIC) / Cb, MBIT alone (QB, MIC): C. albicans; for Ca, first component alone (QA, MIC): component acting alone; for Cb, MBIT alone (QB, MIC): MBIT acting alone; for MIC: Candida albicans, ATCC10231
From the text: as §1, §2, §3, §4, §5

Ps. aeruginosa ATCC#9027 = test: Microtiter plate MIC synergy test (Kull synergy index), bacterium; conditions: for Ca, first component alone (QA, MIC) / Cb, MBIT alone (QB, MIC): Ps. aeruginosa; for Ca, first component alone (QA, MIC): component acting alone; for Cb, MBIT alone (QB, MIC): MBIT acting alone; for MIC: Pseudomonas aeruginosa, ATCC9027
S. aureus ATCC#6538 = test: as above; conditions: for Ca, first component alone (QA, MIC) / Cb, MBIT alone (QB, MIC): S. aureus; for Ca, first component alone (QA, MIC): component acting alone; for Cb, MBIT alone (QB, MIC): MBIT acting alone; for MIC: Staphylococcus aureus, ATCC6538

With `N#CC(Br)(Br)C(N)=O` [DBNPA, 2,2-Dibromo-3-nitrilopropionamide] the “Ca, first component alone (QA, MIC)” value ([1]; contact time 3 days) was 42.5 ppm AI, the “Ca, first component alone (QA, MIC)” value ([1]; contact time 7 days) was 200 ppm AI and the “Ca, first component alone (QA, MIC)” value ([2]; contact time 48 hrs) was 44 ppm AI. The “Ca, first component alone (QA, MIC)” value ([2]; contact time 72 hrs) was over 44 ppm AI, the “Ca, first component alone (QA, MIC)” value (Ps. aeruginosa ATCC#9027; contact time 24 hrs) was 4.25 ppm AI and the “Ca, first component alone (QA, MIC)” value (Ps. aeruginosa ATCC#9027; contact time 48 hrs) was 5.25 ppm AI. For the same compound, the “Ca, first component alone (QA, MIC)” value (S. aureus ATCC#6538; contact time 48 hrs) was 8.5 ppm AI.
In the case of `C=O` [HCHO, Formaldehyde], the “Ca, first component alone (QA, MIC)” value ([1]; contact time 3 days) was 200 ppm AI, the “Ca, first component alone (QA, MIC)” value ([1]; contact time 7 days) was 425 ppm AI and the “Ca, first component alone (QA, MIC)” value ([2]; contact time 48 hrs) was 425 ppm AI. The “Ca, first component alone (QA, MIC)” value ([2]; contact time 72 hrs) was 525 ppm AI, the “Ca, first component alone (QA, MIC)” value (Ps. aeruginosa ATCC#9027; contact time 24 hrs) was 15 ppm AI and the “Ca, first component alone (QA, MIC)” value (Ps. aeruginosa ATCC#9027; contact time 48 hrs) was 26.25 ppm AI. The “Ca, first component alone (QA, MIC)” value (S. aureus ATCC#6538; contact time 24 hrs) was 30 ppm AI and the “Ca, first component alone (QA, MIC)” value (S. aureus ATCC#6538; contact time 48 hrs) was 30 ppm AI.
For `Cn1sc2ccccc2c1=O` [MBIT, N-methyl-1,2-benzisothiazolin-3-one], the “Cb - ppm AI of MBIT (MIC end-point; alone QB or in the mixture Qb)” value (“Cb - ppm AI of MBIT” below) ([1]; A. niger ATCC # 16404, contact time 3 days, Table 5) was 37.5 ppm, the “Cb - ppm AI of MBIT” value ([1]; A. niger ATCC # 16404, contact time 3 days, Table 6) was 37.5 ppm and the “Cb - ppm AI of MBIT” value ([1]; A. niger ATCC # 16404, contact time 7 days, Table 5) was 150 ppm. For the same compound, the “Cb - ppm AI of MBIT” value ([1]; A. niger ATCC # 16404, contact time 7 days, Table 6) was 150 ppm, the “Cb - ppm AI of MBIT” value ([2]; C. albicans ATCC # 10231, contact time 48 hrs, Table 5) was 30 ppm and the “Cb - ppm AI of MBIT” value ([2]; C. albicans ATCC # 10231, contact time 48 hrs, Table 6) was 30 ppm. The “Cb - ppm AI of MBIT” value ([2]; C. albicans ATCC # 10231, contact time 72 hrs, Table 5) was 30 ppm, the “Cb - ppm AI of MBIT” value ([2]; C. albicans ATCC # 10231, contact time 72 hrs, Table 6) was 30 ppm and the “Cb, MBIT alone (QB, MIC)” value ([2]; contact time 48 hrs) was 30 ppm AI. The “Cb, MBIT alone (QB, MIC)” value ([2]; contact time 72 hrs) was 30 ppm AI, the “Cb - ppm AI of MBIT” value (Ps. aeruginosa ATCC#9027; Ps. Aeruginosa ATCC#9027, contact time 24 hrs, Table 5) was 100 ppm and the “Cb - ppm AI of MBIT” value (Ps. aeruginosa ATCC#9027; Ps. Aeruginosa ATCC#9027, contact time 48 hrs, Table 5) was 175 ppm. For the same compound, the “Cb - ppm AI of MBIT” value (Ps. aeruginosa ATCC#9027; Ps. aeruginosa ATCC#9027, contact time 24 hrs, Table 6) was 100 ppm, the “Cb - ppm AI of MBIT” value (Ps. aeruginosa ATCC#9027; Ps. aeruginosa ATCC#9027, contact time 48 hrs, Table 6) was 175 ppm and the “Cb, MBIT alone (QB, MIC)” value (Ps. aeruginosa ATCC#9027; contact time 24 hrs) was 100 ppm AI. For the same compound, the “Cb, MBIT alone (QB, MIC)” value (Ps. aeruginosa ATCC#9027; contact time 48 hrs) was 175 ppm AI, the “Cb - ppm AI of MBIT” value (S. aureus ATCC#6538; S. aureus ATCC#6538, contact time 24 hrs, Table 5) was 30 ppm and the “Cb - ppm AI of MBIT” value (S. aureus ATCC#6538; S. aureus ATCC#6538, contact time 24 hrs, Table 6) was 30 ppm. For the same compound, the “Cb - ppm AI of MBIT” value (S. aureus ATCC#6538; S. aureus ATCC#6538, contact time 48 hrs, Table 5) was 60 ppm, the “Cb - ppm AI of MBIT” value (S. aureus ATCC#6538; S. aureus ATCC#6538, contact time 48 hrs, Table 6) was 60 ppm and the “Cb, MBIT alone (QB, MIC)” value (S. aureus ATCC#6538; contact time 24 hrs) was 60 ppm AI and 30 ppm AI. The “Cb, MBIT alone (QB, MIC)” value (S. aureus ATCC#6538; contact time 48 hrs) was 60 ppm AI.
With `CCCCCCCCn1sccc1=O` [OIT, 2-N-octyl-4-isothiazolin-3-one] the “Ca, first component alone (QA, MIC)” value ([1]; contact time 3 days) was 0.65 ppm AI, the “Ca, first component alone (QA, MIC)” value ([1]; contact time 7 days) was 8.75 ppm AI and the “Ca, first component alone (QA, MIC)” value ([2]; contact time 48 hrs) was 3.25 ppm AI. The “Ca, first component alone (QA, MIC)” value ([2]; contact time 72 hrs) was 3.25 ppm AI, the “Ca, first component alone (QA, MIC)” value (Ps. aeruginosa ATCC#9027; contact time 24 hrs) was 650 ppm AI and the “Ca, first component alone (QA, MIC)” value (Ps. aeruginosa ATCC#9027; contact time 48 hrs) was 650 ppm AI. The “Ca, first component alone (QA, MIC)” value (S. aureus ATCC#6538; contact time 24 hrs) was 30 ppm AI and the “Ca, first component alone (QA, MIC)” value (S. aureus ATCC#6538; contact time 48 hrs) was 200 ppm AI.
`CCCC1COC(Cn2cncn2)(c2ccc(Cl)cc2Cl)O1` (stereo not shown) [propiconazole] showed an MIC ([1]; ATCC16404, 72 h, A. niger ATCC # 16404, contact time 3 days, read-out: Ca - ppm AI of Propiconazole (MIC end-point; alone QA or in the mixture Qa)) of 52.5 µg/mL, an MIC ([1]; ATCC16404, 168 h, A. niger ATCC # 16404, contact time 7 days, read-out: Ca - ppm AI of Propiconazole (MIC end-point; alone QA or in the mixture Qa)) of 87.5 µg/mL and an MIC ([2]; C. albicans ATCC # 10231, contact time 48 hrs, read-out: Ca - ppm AI of Propiconazole (MIC end-point; alone QA or in the mixture Qa)) of 525 µg/mL. The MIC ([2]; C. albicans ATCC # 10231, contact time 72 hrs, read-out: Ca - ppm AI of Propiconazole (MIC end-point; alone QA or in the mixture Qa)) was 525 µg/mL, the MIC (Ps. aeruginosa ATCC#9027; Ps. aeruginosa ATCC#9027, contact time 24 hrs, read-out: Ca - ppm AI of Propiconazole (MIC end-point; alone QA or in the mixture Qa)) was 875 µg/mL and the MIC (Ps. aeruginosa ATCC#9027; Ps. aeruginosa ATCC#9027, contact time 48 hrs, read-out: Ca - ppm AI of Propiconazole (MIC end-point; alone QA or in the mixture Qa)) was 875 µg/mL. The MIC (S. aureus ATCC#6538; S. aureus ATCC#6538, contact time 24 hrs, read-out: Ca - ppm AI of Propiconazole (MIC end-point; alone QA or in the mixture Qa)) was 1100 µg/mL and the MIC (S. aureus ATCC#6538; S. aureus ATCC#6538, contact time 48 hrs, read-out: Ca - ppm AI of Propiconazole (MIC end-point; alone QA or in the mixture Qa)) was 1100 µg/mL.
With `CC(C)(C)C(O)(CCc1ccc(Cl)cc1)Cn1cncn1` (stereo not shown) [tebuconazole] the MIC ([1]; ATCC16404, 72 h, A. niger ATCC # 16404, contact time 3 days, read-out: Ca - ppm AI of Tebuconazole (MIC end-point; alone QA or in the mixture Qa)) was 4.25 µg/mL, the MIC ([1]; ATCC16404, 168 h, A. niger ATCC # 16404, contact time 7 days, read-out: Ca - ppm AI of Tebuconazole (MIC end-point; alone QA or in the mixture Qa)) was 11 µg/mL and the MIC ([2]; C. albicans ATCC # 10231, contact time 48 hrs, read-out: Ca - ppm AI of Tebuconazole (MIC end-point; alone QA or in the mixture Qa)) was 110 µg/mL. It also gave an MIC ([2]; C. albicans ATCC # 10231, contact time 72 hrs, read-out: Ca - ppm AI of Tebuconazole (MIC end-point; alone QA or in the mixture Qa)) of 110 µg/mL, an MIC (Ps. aeruginosa ATCC#9027; Ps. aeruginosa ATCC#9027, contact time 24 hrs, read-out: Ca - ppm AI of Tebuconazole (MIC end-point; alone QA or in the mixture Qa)) of 875 µg/mL and an MIC (Ps. aeruginosa ATCC#9027; Ps. aeruginosa ATCC#9027, contact time 48 hrs, read-out: Ca - ppm AI of Tebuconazole (MIC end-point; alone QA or in the mixture Qa)) of 1100 µg/mL. The MIC (S. aureus ATCC#6538; S. aureus ATCC#6538, contact time 24 hrs, read-out: Ca - ppm AI of Tebuconazole (MIC end-point; alone QA or in the mixture Qa)) was 300 µg/mL and the MIC (S. aureus ATCC#6538; S. aureus ATCC#6538, contact time 48 hrs, read-out: Ca - ppm AI of Tebuconazole (MIC end-point; alone QA or in the mixture Qa)) was 425 µg/mL.
